“Also recorded” adds a separate entry of the source.
Key:
antibodies to HIV-1 [1] = assay: EIA of HIV-1 gp41 peptide-protein conjugates against serum pools; assay type: binding, human; details: peptide conjugated via C-terminus to BSA (SMCC), coated at 10 micrograms peptide/ml; 1:101 dilution of HIV+ serum pool; Figure 1
Protocol: (§1) The free peptides or peptide-protein conjugates of Figures 1-13 were initially screened for immunoreactivity by coating each well of polystyrene microtiter EIA plates (Costar, Cambridge, Massachusetts, U.S.A.) with 0.2 ml amounts of concentrations of 5-50 micrograms/ml peptide in Tris buffer, 10 mM, pH 8.0, at 4°C overnight. Peptides or peptide-protein conjugates showing immunoreactivity by EIA were then further diluted for coating to determine the minimal concentrations required that allowed maximal immunoreactivity with antibodies to HIV, and minimal nonspecific reactivity with normal sera. The EIA tests were performed as follows: The coating solution was removed from each well and the wells were blocked at 37°C for 30 minutes with a solution of 50 mM phosphate, 100 mM NaCl, pH 7.4, 1% BSA, 0.5% gelatin. The wells were then aspirated dry with a microtiter plate washer and washed 3 times with a solution of 50 mM phosphate, 100 mM NaCl, .05% Tween 20, (trademark) pH 7.4 (PBST). A 1:101 dilution (in PBST with 1% BSA, 1% NRS) of the primate serum to be tested was then added as 0.2 ml to each washed well and the plates were incubated at 37°C for 30 minutes. The plates were then washed x 3 with PBST, and 0.2 ml amounts of a 1:2000 dilution of goat anti-human (GAH) peroxidase enzyme conjugate (Organon Teknika, Cappel, Melvern, Pennsylvania, U.S.A.) that recognized human IgG, IgA, and IgM were added to each well, and the plates were incubated for 30 minutes at 37°C. The plates were then washed x 3 with PBST and incubated with 0.2 ml/well substrate consisting of 0,1M citric acid pH 5.2, 0.1 mg/ml o-phenylene diamine, 0.01% H₂O₂, at room temperature in the dark for 10 minutes. Reactions were stopped with 50 microliters of 4N H₂SO₄, and the color development was quantitated in a Multiscan plate reader at A₄₉₂. In each series of experiments positive and negative controls were included, and all tests were done in duplicate or quadruplicate. Most peptides and peptide conjugates were initially screened against a 1:101 dilution of pools of HIV positive or HIV negative sera, and the same serum pool was used to allow quantitative comparison of immunoreactivity of different free peptides or peptide-protein conjugates.
The peptides in Figures 1 and 5 were synthesized as described in Example 1 and conjugated to KLH or BSA as described in Example 2. These peptide-protein conjugates were coated to polystyrene microtiter plates all at a concentration 10 micrograms peptide/ml and evaluated for immunoreactivity as described in Example 3, using a 1:101 dilution of a pool of sera (HIV+/SIV+, respectively) containing antibodies to HIV-1 (Figure 1) or to HIV-2 (Figure 5), as well as pooled serum (HIV-/SIV-, respectively) containing no antibodies to HIV-1 or HIV-2. […] Since sera from patients infected with HIV-2 are relatively unavailable in the United States, the immunoreactivity of HIV-2 synthetic peptides was assessed using serum from macaques infected with SIV, obtained from the University of Washington Primate Center, Seattle, Washington, U.S.A. The AA sequence of SIV is nearly identical to HIV-2 in the region of the peptides synthesized (see Myers et al., Human Retroviruses and AIDS, 1988. A compilation of nucleic acid and amino acid sequences. Los Alamos National Laboratory, Los Alamos, New Mexico, 87545, USA).

antibody to HIV-1 = assay: EIA of p24 synthetic peptide-BSA conjugates with serum pools and individual sera; assay type: binding, human
Protocol: as §1
Figure 8 illustrates the immunoreactivity and AA sequences of synthetic peptides of the p24 protein of HIV-1, when conjugated to BSA via their C-termini using SMCC, and reacted with a pool of approximately 50 sera from persons containing antibody to HIV-1, or with a pool of approximately 30 sera from individuals devoid of antibody to HIV-1. […] No negative sera (0/85, 0%) reacted, and 17 positive sera (17/98, 17%) were immunoreactive. It has been reported that individuals lose antibodies to p24 during the course of progression from asymptomatic infection to clinical disease and AIDS (Franchini et al., Blood 69:(2):437-441, 1987, and Weber et al., Lancet i:119-122, 1987), which may explain the lower frequency of antibodies to this peptide in the sera tested.

antibodies to HIV-1 [2] = assay: EIA of peptide-carrier conjugates with individual human sera; assay type: binding; details: BSA-SMCC conjugate
Protocol: as §1
Figure 10A illustrates the immunoreactivity of synthetic natural peptides 2S06 and 2S09 (Figure 1) when conjugated via their C-terminal GC spacer to KLH using the heterobifunctional linker MBS. […] However, the immunoreactivity of many of the positives was low (A₄₉₂ less than 1.0), and some of the negative samples had A₄₉₂ values slightly above 0.20, resulting in minimal discrimination between negatives and positives. This poor discrimination led to a search for an improved carrier protein and/or linker.
Figure 10B illustrates the reactivity of synthetic natural peptide IWGCSGKLICTTAVPGC (2S09) when conjugated through its C-terminus to BSA via the heterobifunctional linker SMCC. […] Improvement in assay performance as compared with results of Example 5A is noted with respect to negative samples having lower A₄₉₂ values, and most positive samples having higher A₄₉₂ values. […] Because of the possibility that some of the low responsiveness might be due to antigenic differences of genetic variants in the region of this epitope, as reported for HIV isolates from Zaire (Gnann et al., Science 237:1346-1349, 1987), the natural sequence variant peptide 5S67 (Figure 3) was synthesized, chemically linked to BSA with SMCC, and tested against the same sera, plus one additional negative serum sample (Figure 10C). […] This instigated a search for unnatural sequence variants of peptide 2S09 that would retain high immunoreactivity with most sera that contained antibodies to HIV-1, and yet retain low reactivity with sera devoid of antibodies to HIV. […]

[3] = BSA-SMCC conjugate, 85 individual sera without antibodies to HIV-1
[4] = BSA-SMCC conjugate, 98 individual sera with antibodies to HIV-1

| Sequence | immunoreactivity with HIV-1 antibodies (antibodies to HIV-1 [1]) | also measured |
| --- | --- | --- |
| KDQQLLGIWGCSGKLGC [2S04] | Significant immunoreactivity | – |
| ERYLKDQQLLGIIVGC [2S02] | significantly less immunoreactive | – |
| SGKLICTTAVPWNASGC [2S13] | higher reactivity; also recorded: Significant immunoreactivity | – |
| YLKDQQLLGIWGCSGC [2S03] | significantly less immunoreactive | – |
| LLGIWGCSGKLICTTGC [2S06] | Significant immunoreactivity | – |
| ALGPAATLEEMMTACGC [5S94] | – | negative sera that reacted (antibody to HIV-1; [3]): 0/85; negative sera that reacted (percent) (antibody to HIV-1; [3]): 0%; positive sera immunoreactive (antibody to HIV-1; [4]): 17/98; positive sera immunoreactive (percent) (antibody to HIV-1; [4]): 17%; immunoreactivity with serum pools (antibody to HIV-1; BSA-SMCC conjugates, pool of approximately 50 positive sera and pool of approximately 30 negative sera, Figure 8): proved to be the immunoreactive peptide; also recorded: significant immunoreactivity |
| AVERYLKDQQLLGC [2S01] | significantly less immunoreactive | – |
| KLICTTAVPWNASWSGC [2S15] | higher reactivity; also recorded: Significant immunoreactivity | – |
| GKLICTTAVPWNASWGC [3S55] | higher reactivity; also recorded: Significant immunoreactivity | – |
| GCSGKLICTTAVPWNGC [2S11] | higher reactivity; also recorded: Significant immunoreactivity | – |
| QQLLGIWGCSGKLICGC [3S36] | Significant immunoreactivity | – |
| IWGCSGKMICTTAVPGC [5S76] | – | immunoreactivity with positive sera (antibodies to HIV-1 [2]; 98 sera containing antibodies to HIV-1, Figures 10B, 10C, 11): strong immunoreactivity with some sera that reacted weakly in Figure 10B; positive samples giving A492 less than 1.0 (antibodies to HIV-1 [2]; of 98 positive sera, Figure 11B): Five |
| RILAVERYLKDQQLLGIWGCSGKLIC [4S25, reference compound] | lower immunoreactivity; also recorded: lower or comparable immunoreactivity; also recorded: Significant immunoreactivity | – |
| CSGKLICTTAVPWNAGC [3S51] | higher reactivity; also recorded: Significant immunoreactivity | – |
| IKQLQARILAVERYLKDQQ [4S24, reference compound] | lower immunoreactivity | – |
| LGIWGCSGKLICTTAGC [2S07] | Significant immunoreactivity | – |

From EP0449955B1, “SYNTHETIC HIV-LIKE PEPTIDES, THEIR COMPOSITIONS AND USES” (CLARITY TECHNOLOGIES INCORPORATED, priority 1988, dated 1996)
